# Patent publication US9062041B2 (Bayer Intellectual Property GmbH, priority 2011, dated 2015)
# Columns and labels:
# Assay type in all cases: cell-based
# [1] = molecular target: EP4 subtype of the human PGE2 receptor (Homo sapiens, UniProt P35408); experiment: cAMP antagonism test on the human EP4 receptor (HTRF cAMP detection); settings: selectivity towards hEP4, IC50 measured by cAMP antagonism test
# How it was run: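 Competitive HTRF cAMP read-out (cAMP-d2 vs Eu-cryptate anti-cAMP antibody, 665/620 nm ratio) on lysed human EP4 cells. Compound (0.8 nM–16.5 μM) applied 20 min at RT before 60 min PGE2 challenge (3× solution 0.3 nM, IBMX present); 20 min lysis precedes reading.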
# [2] = molecular target: EP2 subtype of the human PGE2 receptor (Homo sapiens, UniProt P43116); experiment: cAMP antagonism test on the human EP2 receptor (HTRF cAMP detection); settings: hEP2 receptor, read-out: Antagonism hEP2 IC50
# How it was run: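 Read-out is a competitive HTRF for cAMP: lysate cAMP displaces cAMP-d2 from Eu cryptate-labelled antibody, and antagonism raises the 665/620 nm ratio. Compound (0.8 nM–16.5 μM) added to EP2 cells 20 min at RT before 60 min PGE2 challenge (3× stock 1.5 nM) with IBMX, followed by 20 min lysis.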
# human PGD receptor = molecular target: T1, human PGD receptor (Homo sapiens, UniProt Q13258); experiment: cAMP antagonism test on the human prostaglandin D receptor (HTRF cAMP detection); settings: selectivity towards hDP, IC50 measured by cAMP antagonism test
# T1 sequence (Q13258 1-359): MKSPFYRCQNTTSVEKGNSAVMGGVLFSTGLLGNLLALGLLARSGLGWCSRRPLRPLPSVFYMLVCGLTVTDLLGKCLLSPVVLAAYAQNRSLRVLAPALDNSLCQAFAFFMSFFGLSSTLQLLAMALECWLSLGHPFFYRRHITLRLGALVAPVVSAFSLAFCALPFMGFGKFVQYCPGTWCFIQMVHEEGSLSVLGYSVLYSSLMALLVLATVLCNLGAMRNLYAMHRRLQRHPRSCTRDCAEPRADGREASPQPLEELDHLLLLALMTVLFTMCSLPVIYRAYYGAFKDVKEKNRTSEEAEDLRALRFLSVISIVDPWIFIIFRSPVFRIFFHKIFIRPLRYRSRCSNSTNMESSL
# How it was run: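 HTRF competition read-out (665/620 nm ratio ×10000), where higher FRET means less cAMP, i.e. antagonism. Compounds (0.8 nM–16.5 μM) were preincubated 20 min at RT with cells and cAMP-d2, PGD2 (3× solution, 6 nM) in IBMX-containing PBS added for 30 min at RT, then cells lysed 20 min.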
# EP4 subtype of the human PGE2 receptor, sequence (P35408 whole entry): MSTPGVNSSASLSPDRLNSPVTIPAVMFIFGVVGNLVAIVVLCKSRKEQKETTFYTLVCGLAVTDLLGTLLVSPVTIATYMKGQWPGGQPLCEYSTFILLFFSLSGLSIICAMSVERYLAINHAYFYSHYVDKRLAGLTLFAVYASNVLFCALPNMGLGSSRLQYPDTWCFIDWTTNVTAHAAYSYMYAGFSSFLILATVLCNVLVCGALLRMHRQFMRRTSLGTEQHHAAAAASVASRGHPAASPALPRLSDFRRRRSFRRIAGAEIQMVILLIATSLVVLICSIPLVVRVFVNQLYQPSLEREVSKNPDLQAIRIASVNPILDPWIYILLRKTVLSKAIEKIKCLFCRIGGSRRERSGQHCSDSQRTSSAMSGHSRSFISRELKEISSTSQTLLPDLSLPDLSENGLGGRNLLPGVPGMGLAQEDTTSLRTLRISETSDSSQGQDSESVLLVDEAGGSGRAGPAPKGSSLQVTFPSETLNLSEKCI
# EP2 subtype of the human PGE2 receptor, sequence (P43116 whole entry): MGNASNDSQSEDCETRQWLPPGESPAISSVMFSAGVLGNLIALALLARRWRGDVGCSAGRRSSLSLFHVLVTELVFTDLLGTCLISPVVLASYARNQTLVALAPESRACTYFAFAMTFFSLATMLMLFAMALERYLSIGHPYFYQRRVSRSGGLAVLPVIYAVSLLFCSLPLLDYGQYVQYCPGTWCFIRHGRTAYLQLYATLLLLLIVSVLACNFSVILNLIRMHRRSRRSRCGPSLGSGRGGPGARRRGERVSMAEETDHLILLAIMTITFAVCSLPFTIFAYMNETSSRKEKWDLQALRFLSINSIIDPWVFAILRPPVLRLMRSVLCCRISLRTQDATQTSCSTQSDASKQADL
SMILES,Selectivity hEP2/hEP4 [1],IC50 [2],Selectivity hEP2/hDP (human PGD receptor)
"Cc1c(C(=O)NCC(F)(F)F)ccc2nn(CC3CCN(C(=O)c4ccc(-c5ccc(C(F)(F)F)nc5)cc4)CC3)cc12 [Example 321, 4-methyl-N-(2,2,2-trifluoroethyl)-2-[(1-{4-[6-(trifluoromethyl)pyridin-3-yl]-benzoyl}piperidin-4-yl)methyl]-2H-indazol-5-carboxamide]",xxx (xxx > 100),0.101 µM,xxx (xxx > 100)
"Cc1c(C(=O)NCC2CCC2)ccc2nn(CC3CCN(C(=O)c4ccc(Oc5ccc(C(F)(F)F)cc5)cc4)CC3)cc12 [Example 403, N-(cyclobutylmethyl)-4-methyl-2-[(1-{4-[4-(trifluoromethyl)phenoxy]benzoyl}-piperidin-4-yl)methyl]-2H-indazol-5-carboxamide]",xxx (xxx > 100),0.00959 µM,xxx (xxx > 100)
"COCCNC(=O)c1ccc2nn(CC3CCN(C(=O)c4ccc5ccc(OC)cc5c4)CC3)cc2c1C [Example 344, N-(2-methoxyethyl)-2-{[1-(7-methoxy-2-naphthoyl)piperidin-4-yl]methyl}-4-methyl-2H-indazol-5-carboxamide]",xxx (xxx > 100),0.0103 µM,xxx (xxx > 100)
"Cc1c(C(=O)NCCN2CCOCC2)ccc2nn(CC3CCN(C(=O)c4cccc(OC(F)(F)F)c4)CC3)cc12 [Example 61, 4-methyl-N-(2-morpholinoethyl)-2-({1-[3-(trifluoromethoxy)benzoyl]piperidin-4-yl}methyl)-2H-indazol-5-carboxamide]",xx (xx: 10-100),1.5 µM,xx (xx: 10-100)
"COCCNC(=O)c1ccc2nn(C[C@@H]3CCN(C(=O)c4ccc(Cl)cc4)C3)cc2c1C [Example 217, 2-{[(R)-1-(4-chlorobenzoyl)pyrrolidin-3-yl]methyl}-N-(2-methoxyethyl)-4-methyl-2H-indazol-5-carboxamide]",xxx (xxx > 100),0.114 µM,xxx (xxx > 100)
"Cc1c(C(=O)NCCOC(C)C)ccc2nn(CC3CCN(C(=O)c4ccc(C(F)(F)F)cc4)CC3)cc12 [Example 99, N-(2-isopropoxy-ethyl)-4-methyl-2-({1-[4-(trifluoro-methyl)benzoyl]-piperidin-4-yl}-methyl)-2H-indazol-5-carboxamide]",xxx (xxx > 100),0.0104 µM,xxx (xxx > 100)
"Cc1c(C(=O)NCCOCC2CC2)ccc2nn(CC3CN(C(=O)c4ccc(Cl)cc4)C3)cc12 [Example 149, 2-{[1-(4-chlorobenzoyl)azetidin-3-yl]methyl}-N-[2-(cyclopropylmethoxy)ethyl]-4-methyl-2H-indazol-5-carboxamide]",xxx (xxx > 100),0.0296 µM,xxx (xxx > 100)
"Cc1c(C(=O)NCCS(C)(=O)=O)ccc2nn(CC3CCN(C(=O)c4ccc(Cl)cc4)CC3)cc12 [Example 244, 2-{[1-(4-chlorobenzoyl)piperidin-4-yl]methyl}-N-(2-mesylethyl)-4-methyl-2H-indazol-5-carboxamide]",xxx (xxx > 100),0.0442 µM,xxx (xxx > 100)
"Cc1c(C(=O)NCC(F)(F)F)ccc2nn(CC3CCN(C(=O)c4ccc(Cl)cc4)CC3)cc12 [Example 72, 2-{[1-(4-chlorobenzoyl)piperidin-4-yl]methyl}-4-methyl-N-(2,2,2-trifluoroethyl)-2H-indazol-5-carboxamide]",xxx (xxx > 100),0.12 µM,xxx (xxx > 100)
"Cc1c(C(=O)NCC(C)C)ccc2nn(CC3CCN(C(=O)c4ccc(Oc5ccc(C(F)(F)F)cc5)cc4)CC3)cc12 [Example 404, N-isobutyl-4-methyl-2-[(1-{4-[4-(trifluoromethyl)phenoxy]benzoyl}piperidin-4-yl)methyl]-2H-indazol-5-carboxamide]",xxx (xxx > 100),0.0202 µM,xxx (xxx > 100)
"COCCNC(=O)c1ccc2nn(CC3CN(C(=O)c4ccc(Cl)c(C(F)(F)F)c4)C3)cc2c1C [Example 123, 2-({1-[4-chloro-3-(trifluoromethyl)benzoyl]azetidin-3-yl}methyl)-N-(2-methoxy-ethyl)-4-methyl-2H-indazol-5-carboxamide]",xxx (xxx > 100),0.00892 µM,xxx (xxx > 100)
"Cc1c(C(=O)NCC2CCCCO2)ccc2nn(CC3CCN(C(=O)c4ccc(Oc5ccc(C(F)(F)F)cc5)cc4)CC3)cc12 (single isomer, unassigned) [Example 416, (R or S)-4-methyl-N-(3,4,5,6-tetrahydro-2H-pyran-2-ylmethyl)-2-[(1-{4-[4-(trifluoromethyl)phenoxy]benzoyl}piperidin-4-yl)methyl]-2H-indazol-5-carboxamide]",xxx (xxx > 100),0.0107 µM,xxx (xxx > 100)
"Cc1c(C(=O)NCCOCC2CC2)ccc2nn(CC3CN(C(=O)c4ccc(-c5ccc(F)cc5)cc4)C3)cc12 [Example 157, N-[2-(cyclopropylmethoxy)ethyl]-2-({1-[(4′-fluorobiphenyl-4-yl)carbonyl]azetidin-3-yl}methyl)-4-methyl-2H-indazol-5-carboxamide]",xxx (xxx > 100),0.0136 µM,xxx (xxx > 100)
"Cc1c(C(=O)NCC2CCC2)ccc2nn(CC3CCN(C(=O)c4ccc(Cl)cc4)CC3)cc12 [Example 250, 2-{[1-(4-chlorobenzoyl)piperidin-4-yl]methyl}-N-(cyclobutylmethyl)-4-methyl-2H-indazol-5-carboxamide]",xxx (xxx > 100),0.0306 µM,xxx (xxx > 100)
"Cc1c(C(=O)NCCOC(C)C)ccc2nn(CC3CCN(C(=O)c4ccc(-c5ccc(F)cc5)cc4)CC3)cc12 [Example 100, 2-({1-[(4′-fluoro-biphenyl-4-yl)-carbonyl]piperidin-4-yl}methyl)-N-(2-isopropoxyethyl)-4-methyl-2H-indazol-5-carboxamide]",xxx (xxx > 100),0.00621 µM,xxx (xxx > 100)
"COCCNC(=O)c1ccc2nn(CC3CCN(C(=O)c4ccc(-c5ccc(Cl)cc5C)cc4)CC3)cc2c1C [Example 371, 2-({1-[(4′-chloro-2′-methylbiphenyl-4-yl)carbonyl]piperidin-4-yl}methyl)-N-(2-methoxyethyl)-4-methyl-2H-indazol-5-carboxamide]",xxx (xxx > 100),0.00611 µM,xxx (xxx > 100)
